In assay [1] the test system is T1, KATP channels of follicular cells (follicle-enclosed Xenopus oocytes).
T1 construct: gene kcnj11; native channel, endogenous to follicular cells; pore tetramer with one SUR per pore subunit; isoforms not determined
Put plainly: two-electrode voltage clamp, cromakalim-activated K+ current, follicle-enclosed oocytes. The format is cell-based, Xenopus laevis. The note with it: 100 μM cromakalim; 20 min MB preincubation; -20 mV; pH 7.5; noncompetitive, voltage-independent; slope 1.1. Background: Two-electrode voltage clamp holds a large cell at a set potential and records current.

The test system is the same in assay [2]. Put plainly: [3H]glibenclamide saturation binding, microsomal membranes, filtration. On the set-up: species or system Xenopus laevis. The note with it: labelled compound; control without MB; 50 mM HEPES, pH 7.5, 22 °C, 60 min; sulfonylurea receptor site.
For assay [3] the test system is unchanged. As to the kind of experiment: two-electrode voltage clamp, cromakalim-activated K+ current, follicle-enclosed oocytes. Type of assay: cell-based, Xenopus laevis. The settings on record: channel opener; control without MB; -20 mV; pH 7.5; slope 0.91.

Drawing on paper PMC9966726, “Methylene Blue Inhibits Cromakalim-Activated K^+ Currents in Follicle-Enclosed Oocytes” (Membranes, 2023), this text covers IC50, Kd and EC50 for three compounds.

Each structure is given as a SMILES string.

One may read the IC50 as the point on the concentration scale where inhibition reaches its midpoint. The low end stands for inhibition by little substance, the high end for a need for much substance. Take `CN(C)c1ccc2nc3ccc(N(C)C)cc3[s+]c2c1` [MB, Methylene blue]: the IC50 in assay [1] was determined as 22.4 µM.

Broadly, the Kd is a measure of binding affinity in units of concentration. Low values mean a tighter complex, high ones a looser complex. Turning to `COc1ccc(Cl)cc1C(=O)NCCc1ccc(S(=O)(=O)NC(=O)NC2CCCCC2)cc1` [[^3H]glibenclamide], the affinity in assay [2], expressed as Kd, was 0.00121 ± 0.00014 µM.

As a reminder, the EC50 is the concentration at which the effect is half-maximal. Read a high EC50 as weaker potency. In assay [3], `CC1(C)Oc2ccc(C#N)cc2C(N2CCCC2=O)C1O` (stereo not drawn) [CKL, cromakalim] displayed an EC50 of 194 ± 21 µM.
